Tests used:
collagenase [1] = assay: FALGPA hydrolysis assay (compound purity […]); also retained in Target Binding ultrafiltration UHPLC-MS (RA […]); format: biochemical, Hathewaya histolytica
mushroom tyrosinase = target: T1, mushroom tyrosinase (Agaricus bisporus, UniProt C7FF04); assay: spectrophotometric L-tyrosine to dopachrome assay, […] nm; also retained in Target Binding (RA […], reference); format: biochemical
T1 construct: gene PPO3; T3824-250KU, Sigma-Aldrich

collagenase [2] = assay: FALGPA hydrolysis assay; also retained in Target Binding ultrafiltration UHPLC-MS (RA […]); format: biochemical, Hathewaya histolytica

T1 sequence (C7FF04 2-392): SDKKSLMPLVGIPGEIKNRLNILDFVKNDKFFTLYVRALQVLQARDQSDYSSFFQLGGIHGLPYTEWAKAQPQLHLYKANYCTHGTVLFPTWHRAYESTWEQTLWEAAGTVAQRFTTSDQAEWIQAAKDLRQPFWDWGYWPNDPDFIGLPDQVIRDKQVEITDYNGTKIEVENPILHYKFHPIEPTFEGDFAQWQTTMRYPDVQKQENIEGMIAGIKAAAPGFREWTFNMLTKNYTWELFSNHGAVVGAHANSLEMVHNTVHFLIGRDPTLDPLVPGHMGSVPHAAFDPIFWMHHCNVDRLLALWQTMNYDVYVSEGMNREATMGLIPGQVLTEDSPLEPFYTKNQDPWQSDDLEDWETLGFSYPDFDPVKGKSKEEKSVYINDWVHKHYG

Compound: O=C1C[C@@H]2c3ccccc3O[C@H]3c4ccc(O)c(O)c4-c4c(O)cc(O)c1c4[C@H]23 [compound 2, nor-ohioensin D]
- IC50 (collagenase [1]): 167 µM

Compound: O=C1C[C@@H]2c3ccccc3O[C@H]3c4cc(O)ccc4-c4c(O)cc(O)c1c4[C@H]23 [compound 1, ohioensin A]
- inhibition at 200 µM (mushroom tyrosinase): 30%
- IC50 (collagenase [2]): 72 µM

From publication PMC8309073, “Collagenase and Tyrosinase Inhibitory Effect of Isolated Constituents from the Moss Polytrichum formosum” (Plants, 2021)
